Measurements reported in patent publication US7563818B2, “Photosensitizer functionalised nanoparticles” (Cancer Research Technology Limited, priority 2001, dated 2009).
Read-outs that look alike come from different tables or passages of the source.

Columns and labels:
[1] = Solubility in polar solvents; assay type: physicochemical; conditions: polar solvents (e.g. ethanol, methanol, DMSO)
Excerpt: Transmission electron micrographs of the Pc-gold nanoparticles are consistent with those reported by several groups for other thiol-stabilized MPCs in that they show small, 2-4 nm, non-aggregated particles—FIG. 2. […] A similar change in solubility was recently reported by Imahori et al.^23 for a porphyrin self-assembled on gold nanoparticles used as an artificial photosynthetic material.

[2] = Singlet oxygen quantum yield, method of Nonell and Braslavsky; assay type: physicochemical; conditions: for Increase in ΦΔ: addition of 1 mM TOAB to the free Pc
Experimental: Singlet oxygen quantum yields, ΦΔ, for both the free and bound Pc were determined (Table 1) using the method of Nonell and Braslavsky.^24 The Pc coated nanoparticles were referenced to perinapthenone in ethanol (ΦΔ=0.97)^25, whilst free Pc was referenced to perinapthenone and octa-decyl zinc phthalocyanine^17 in toluene (ΦΔ=1.0 and 0.7 respectively). After deoxygenation of the Pc samples no singlet oxygen could be detected. […] The value of ΦΔ of 0.45 for the free Pc in toluene is consistent with previous measurements of similar metallated Pcs.^26

[3] = Fluorescence lifetime by time-correlated single photon counting; assay type: physicochemical
Excerpt: Fluorescence lifetime (τ) measurements were obtained by using the method of time-correlated single photon counting. For both the free and bound phthalocyanine optimum fits (X2) were obtained for the double exponential and τ1 and τ2 values are shown in table 1.

[4] = cited from earlier work
[5] = double exponential fit, free Pc in toluene, Pc-nanoparticles in ethanol
[6] = in toluene with addition of 1 mM TOAB

Solubility in polar solvents [1] | τ1 (yield) [3, 5] [%] | τ1 fluorescence lifetime [3, 5] [ns] | τ2 (yield) [3, 5] [%] | τ2 fluorescence lifetime [3, 5] [ns] | τ1 (yield) [3, 6] [%] | τ1 fluorescence lifetime [3, 6] [ns] | τ2 (yield) [3, 6] [%] | τ2 fluorescence lifetime [3, 6] [ns] | Molecule | Increase in ΦΔ [2] | Increase in ΦΔ ([2]; listed as free phthaloyanine) | φΔ singlet oxygen quantum yield ([2]; free Pc in toluene, Pc-nanoparticles in ethanol, referenced to perinapthenone (and octa-decyl zinc phthalocyanine for free Pc)) | ΦΔ singlet oxygen quantum yield of reference ([4]; in ethanol) | ΦΔ singlet oxygen quantum yield of reference ([4]; in toluene)
insoluble | 91 | 2.1 | 9 | 1.11 | 76 | 0.7 | 24 | 1.7 | CCCCCCc1ccc(CCCCCC)c2c1-c1nc3nc(nc4[nH]c(nc5[nH]c(nc-2n1)c1c(CCCCCC)ccc(CCCCCC)c51)c1c(CCCCCC)ccc(CCCCCC)c41)-c1c(C)ccc(CCCCCCCCCCCS)c1-3 [Free Pc, 1,4,8, 11, 15, 18-hexahexyl-22-(11-mercaptoundecyl)-25-methyl phthalocyanine] | ca. 10% | about 10% | 0.45 |  | 
 |  |  |  |  |  |  |  |  | O=C1C=Cc2cccc3cccc1c23 [perinapthenone] |  |  |  | 0.97 | 1.0
 |  |  |  |  |  |  |  |  | octa-decyl zinc phthalocyanine |  |  |  |  | 0.7
